Experimental data from US8541588B2, “Sulfonamide derivatives” (Pfizer Limited, priority 2009, dated 2013).

Molecular target: T1, Nav1.7 (or SCN9A) channel; HEK cells stably transfected with hSCN9A (Homo sapiens, UniProt Q15858)
T1 construct: expressed in transfected cells
Assay: Nav1.7 block, PatchXpress 7000 automated whole-cell voltage clamp, estimated IC50 (EIC50)
Assay type: cell-based
Conditions: PatchXpress platform; hSCN9A HEK cells held at V1/2 of inactivation; estimated IC50

T1 sequence (Q15858 whole entry): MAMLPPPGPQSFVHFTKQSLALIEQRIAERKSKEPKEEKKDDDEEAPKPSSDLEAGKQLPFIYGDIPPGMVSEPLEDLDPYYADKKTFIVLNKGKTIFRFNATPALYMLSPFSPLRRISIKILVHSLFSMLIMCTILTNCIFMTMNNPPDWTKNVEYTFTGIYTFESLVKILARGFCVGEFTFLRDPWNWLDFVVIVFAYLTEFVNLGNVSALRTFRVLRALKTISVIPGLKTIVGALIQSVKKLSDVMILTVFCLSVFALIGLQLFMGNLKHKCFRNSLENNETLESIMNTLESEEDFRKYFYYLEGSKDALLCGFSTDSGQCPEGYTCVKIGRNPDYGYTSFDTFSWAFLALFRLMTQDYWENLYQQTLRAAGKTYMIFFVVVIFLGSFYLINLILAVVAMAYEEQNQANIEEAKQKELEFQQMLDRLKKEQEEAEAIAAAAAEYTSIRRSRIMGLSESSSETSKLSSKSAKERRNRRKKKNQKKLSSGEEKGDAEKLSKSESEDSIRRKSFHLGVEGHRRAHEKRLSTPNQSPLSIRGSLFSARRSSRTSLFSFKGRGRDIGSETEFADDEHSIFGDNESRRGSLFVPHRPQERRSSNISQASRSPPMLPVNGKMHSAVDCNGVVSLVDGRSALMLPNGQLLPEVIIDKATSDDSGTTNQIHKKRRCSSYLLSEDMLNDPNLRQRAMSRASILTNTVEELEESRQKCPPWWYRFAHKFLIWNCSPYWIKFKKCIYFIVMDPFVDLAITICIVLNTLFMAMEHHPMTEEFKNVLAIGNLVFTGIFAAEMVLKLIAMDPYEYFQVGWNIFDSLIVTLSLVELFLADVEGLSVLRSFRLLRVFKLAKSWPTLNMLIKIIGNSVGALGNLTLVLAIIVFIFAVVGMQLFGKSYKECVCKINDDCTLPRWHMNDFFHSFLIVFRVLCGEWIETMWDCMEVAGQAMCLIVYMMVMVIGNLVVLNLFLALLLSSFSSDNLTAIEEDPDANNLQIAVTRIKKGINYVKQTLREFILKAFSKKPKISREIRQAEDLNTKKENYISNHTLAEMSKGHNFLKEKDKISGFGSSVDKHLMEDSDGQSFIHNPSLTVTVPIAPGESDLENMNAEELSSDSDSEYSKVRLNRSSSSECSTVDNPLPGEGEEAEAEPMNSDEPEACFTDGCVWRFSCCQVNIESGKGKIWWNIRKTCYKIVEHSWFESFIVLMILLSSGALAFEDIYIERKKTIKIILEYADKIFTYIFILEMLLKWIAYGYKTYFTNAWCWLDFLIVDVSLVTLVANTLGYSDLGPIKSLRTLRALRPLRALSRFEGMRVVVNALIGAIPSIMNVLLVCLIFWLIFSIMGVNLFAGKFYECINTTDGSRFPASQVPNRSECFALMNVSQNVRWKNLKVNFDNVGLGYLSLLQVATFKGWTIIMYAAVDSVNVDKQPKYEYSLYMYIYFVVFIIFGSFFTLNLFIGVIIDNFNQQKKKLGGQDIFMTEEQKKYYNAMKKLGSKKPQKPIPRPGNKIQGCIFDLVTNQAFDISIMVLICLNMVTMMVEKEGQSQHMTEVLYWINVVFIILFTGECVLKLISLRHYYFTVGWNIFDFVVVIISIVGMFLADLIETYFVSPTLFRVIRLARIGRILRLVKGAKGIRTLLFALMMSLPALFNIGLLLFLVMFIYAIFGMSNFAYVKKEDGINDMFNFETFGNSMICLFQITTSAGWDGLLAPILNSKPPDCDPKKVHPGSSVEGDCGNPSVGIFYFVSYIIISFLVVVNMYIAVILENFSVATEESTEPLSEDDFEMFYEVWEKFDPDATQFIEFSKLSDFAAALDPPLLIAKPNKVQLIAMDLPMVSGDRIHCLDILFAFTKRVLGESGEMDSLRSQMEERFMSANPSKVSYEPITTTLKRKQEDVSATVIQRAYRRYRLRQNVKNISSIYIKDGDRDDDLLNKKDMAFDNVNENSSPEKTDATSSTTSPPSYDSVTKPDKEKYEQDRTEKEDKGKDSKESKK

Q: How did the IC50 turn out when `Cc1cc(Oc2ccccc2-c2ccccc2)ccc1S(=O)(=O)Nc1ncns1` [Example 261, 4-(biphenyl-2-yloxy)-2-methyl-N-1,2,4-thiadiazol-5-ylbenzenesulfonamide] was run?
A: 470 nM

Q: With `Cn1nccc1-c1ccc(Oc2ccc(S(=O)(=O)Nc3nccs3)cc2C#N)c(Cl)c1` [Example 179, 4-(2-chloro-4-(1-methyl-1H-pyrazol-5-yl)phenoxy)-3-cyano-N-(thiazol-2-yl)benzenesulfonamide] as the molecule, how does the IC50 read?
A: 2190 nM

Q: With `CCOC(=O)Cn1nc(Cc2ccc(Cl)cc2)cc1Oc1ccc(S(=O)(=O)Nc2ncns2)cc1C#N` [Example 92, 3-(4-chloro-benzyl)-5-{2-cyano-4-(1,2,4-thiadiazol-5-ylsulfamoyl)-phenoxy}-pyrazol-1-yl-acetic acid ethyl ester] as the molecule, how does the IC50 read?
A: 1810 nM

Q: With `N#Cc1cc(S(=O)(=O)Nc2nncs2)ccc1Oc1ccccc1-c1ccccc1` [Example 104, 4-(biphenyl-2-yloxy)-3-cyano-N-1,3,4-thiadiazol-2-ylbenzenesulfonamide] as the molecule, how does the IC50 read?
A: 2250 nM

Q: Which IC50 does the source give for `N#Cc1cc(S(=O)(=O)Nc2ncns2)ccc1Oc1ccccc1Oc1ccccc1` [Example 68, 3-cyano-4-(2-phenoxyphenoxy)-N-1,2,4-thiadiazol-5-ylbenzenesulfonamide] here?
A: 770 nM

Same assay, conditions: estimated IC50; hSCN9A HEK cells, PatchXpress platform; Examples 283-814

Q: `Cn1nccc1-c1ccccc1Oc1ccc(S(=O)(=O)Nc2cscn2)cc1I` [Example 629, 3-iodo-4-[2-(1-methyl-1H-pyrazol-5-yl)phenoxy]-N-1,3-thiazol-4-ylbenzenesulfonamide] was tested. Which IC50 did it give?
A: 240 nM

Q: With `Cc1cnsc1-c1ccccc1Oc1ccc(S(=O)(=O)Nc2ccc(F)cn2)cc1C#N` [Example 577, 3-cyano-N-(5-fluoropyridin-2-yl)-4-[2-(4-methylisothiazol-5-yl)phenoxy]benzenesulfonamide] as the molecule, how does the IC50 read?
A: 11000 nM

Q: `O=S(=O)(Nc1cscn1)c1cc(Cl)c(Oc2ccc(F)cc2-c2c[nH]nn2)cc1F` [Example 521, 5-chloro-2-fluoro-4-[4-fluoro-2-(1H-1,2,3-triazol-4-yl)phenoxy]-N-1,3-thiazol-4-ylbenzenesulfonamide] was tested. Which IC50 did it give?
A: 2900 nM

Q: `Cn1nccc1-c1ccc(Oc2ccc(S(=O)(=O)Nc3ncc(F)s3)cc2C#N)c(C#N)c1` [Example 538, 3-cyano-4-[2-cyano-4-(1-methyl-1H-pyrazol-5-yl)phenoxy]-N-(5-fluoro-1,3-thiazol-2-yl)benzenesulfonamide] was tested. Which IC50 did it give?
A: 3400 nM

Q: `N#Cc1cc(S(=O)(=O)Nc2ncns2)cc(F)c1Oc1ccc(Cl)cc1-c1cn[nH]c1` [Example 676, 4-[4-chloro-2-(1H-pyrazol-4-yl)phenoxy]-3-cyano-5-fluoro-N-1,2,4-thiadiazol-5-ylbenzenesulfonamide] was tested. Which IC50 did it give?
A: 190 nM

Q: How did the IC50 turn out when `Cn1nccc1-c1cc(Cl)ccc1Oc1ccc(S(=O)(=O)Nc2ccncn2)cc1Cl` [Example 668, 3-Chloro-4-[4-chloro-2-(1-methyl-1H-pyrazol-5-yl)phenoxy]-N-pyrimidin-4-ylbenzenesulfonamide] was run?
A: 53 nM

Q: `Nc1cc(-c2cc(Cl)ccc2Oc2cc(F)c(S(=O)(=O)Nc3nncs3)cc2Cl)ccn1` [Example 814, 4-[2-(2-aminopyridin-4-yl)-4-chlorophenoxy]-5-chloro-2-fluoro-N-1,3,4-thiadiazol-2-ylbenzenesulfonamide] was tested. Which IC50 did it give?
A: 6.2 nM

Q: `Cn1nccc1-c1ccc(C#N)cc1Oc1cc(F)c(S(=O)(=O)Nc2ncc(Cl)s2)cc1F` [Example 615, N-(5-chloro-1,3-thiazol-2-yl)-4-[5-cyano-2-(1-methyl-1H-pyrazol-5-yl)phenoxy]-2,5-difluorobenzenesulfonamide] was tested. Which IC50 did it give?
A: 2000 nM

Q: `N#Cc1cc(S(=O)(=O)Nc2nccs2)ccc1Oc1cnn(-c2cccc(C(F)(F)F)c2)c1` [Example 334, 3-cyano-N-1,3-thiazol-2-yl-4-({1-[3-(trifluoromethyl)phenyl]-1H-pyrazol-4-yl}oxy)benzenesulfonamide] was tested. Which IC50 did it give?
A: 3400 nM

Q: `Cn1nccc1-c1cc(Oc2ccc(S(=O)(=O)Nc3nccs3)cc2C#N)ccc1Cl` [Example 648, 4-[4-chloro-3-(1-methyl-1H-pyrazol-5-yl)phenoxy]-3-cyano-N-1,3-thiazol-2-ylbenzenesulfonamide] was tested. Which IC50 did it give?
A: 1600 nM

Q: For `Cc1ccnc(-c2ccc(Oc3ccc(S(=O)(=O)Nc4nccs4)cc3C#N)cc2)c1` [Example 450, 3-cyano-4-[4-(4-methylpyridin-2-yl)phenoxy]-N-1,3-thiazol-2-ylbenzenesulfonamide], which IC50 is on record?
A: 3400 nM

Q: With `CCc1ccc(Oc2ccc(S(=O)(=O)Nc3nccs3)cc2C#N)c(-c2ccnn2C)c1` [Example 350, 3-cyano-4-[4-ethyl-2-(1-methyl-1H-pyrazol-5-yl)phenoxy]-N-1,3-thiazol-2-ylbenzenesulfonamide] as the molecule, how does the IC50 read?
A: 15 nM

Q: Which IC50 does the source give for `Cc1cc(-c2ccc(Oc3ccc(S(=O)(=O)Nc4nccs4)cc3C#N)cc2)n(CCO)n1` [Example 374, 3-cyano-4-{4-[1-(2-hydroxyethyl)-3-methyl-1H-pyrazol-5-yl]phenoxy}-N-1,3-thiazol-2-ylbenzenesulfonamide] here?
A: 1900 nM

Q: How did the IC50 turn out when `CC(C)(C)n1nc(C(F)(F)F)cc1-c1ccc(Oc2ccc(S(=O)(=O)Nc3nccs3)c(F)c2)cc1` [Example 303, 4-{4-[1-tert-Butyl-3-(trifluoromethyl)-1H-pyrazol-5-yl]phenoxy}-2-fluoro-N-1,3-thiazol-2-ylbenzenesulfonamide] was run?
A: 430 nM

Q: How did the IC50 turn out when `O=S(=O)(Nc1cscn1)c1cc(Cl)c(Oc2ccc(C(F)(F)F)cc2-c2cn[nH]c2)cc1F` [Example 659, 5-chloro-2-fluoro-4-[2-(1H-pyrazol-4-yl)-4-(trifluoromethyl)phenoxy]-N-1,3-thiazol-4-ylbenzenesulfonamide] was run?
A: 91 nM

Q: With `Cn1nc(-c2ccc(Oc3ccc(S(=O)(=O)Nc4nccs4)cc3C#N)cc2)cc1C(F)(F)F` [Example 371, 3-cyano-4-{4-[1-methyl-5-(trifluoromethyl)-1H-pyrazol-3-yl]phenoxy}-N-1,3-thiazol-2-ylbenzenesulfonamide] as the molecule, how does the IC50 read?
A: 1800 nM

Same assay, conditions: estimated IC50; hSCN9A HEK cells, PatchXpress platform; Examples 815-1040

Q: For `O=S(=O)(Nc1cccnn1)c1ccc(Oc2ccc(Cl)cc2-c2ccnnc2)c(Cl)c1` [Example 869, 3-chloro-4-(4-chloro-2-pyridazin-4-ylphenoxy)-N-pyridazin-3-ylbenzenesulfonamide], which IC50 is on record?
A: 540 nM

Q: For `N#Cc1cc(S(=O)(=O)Nc2ncns2)ccc1Oc1cc(Cl)c(F)cc1-c1ccnnc1` [Example 938, 4-(5-chloro-4-fluoro-2-pyridazin-4-ylphenoxy)-3-cyano-N-1,2,4-thiadiazol-5-ylbenzenesulfonamide], which IC50 is on record?
A: 25 nM

Q: `N#Cc1cc(S(=O)(=O)Nc2ncns2)ccc1Oc1ccc(OC(F)(F)F)cc1-c1ccnnc1` [Example 878, 3-cyano-4-[2-pyridazin-4-yl-4-(trifluoromethoxy)phenoxy]-N-1,2,4-thiadiazol-5-ylbenzenesulfonamide] was tested. Which IC50 did it give?
A: 5.8 nM

Q: `Cc1ncccc1-c1cc(Cl)ccc1Oc1ccc(S(=O)(=O)Nc2ncns2)cc1C#N` [Example 1009, 4-[4-chloro-2-(2-methylpyridin-3-yl)phenoxy]-3-cyano-N-1,2,4-thiadiazol-5-ylbenzenesulfonamide] was tested. Which IC50 did it give?
A: 21 nM

Q: With `N#Cc1cc(S(=O)(=O)Nc2nncs2)ccc1Oc1ccc(Cl)cc1-c1ccnc(N2CCOCC2)c1` [Example 899, 4-[4-chloro-2-(2-morpholin-4-ylpyridin-4-yl)phenoxy]-3-cyano-N-1,3,4-thiadiazol-2-ylbenzenesulfonamide] as the molecule, how does the IC50 read?
A: 18 nM

Q: For `N#Cc1cc(S(=O)(=O)Nc2ncns2)ccc1Oc1ccc(F)cc1C1CCOCC1` [Example 842, 3-cyano-4-[4-fluoro-2-(tetrahydro-2H-pyran-4-yl)phenoxy]-N-1,2,4-thiadiazol-5-ylbenzenesulfonamide], which IC50 is on record?
A: 96 nM
